# Experimental data as given in patent US12344610B2, “APOL1 inhibitors and methods of use” (Maze Therapeutics, Inc., priority 2022, dated 2025).
# Tests used:
# Type in all cases: cell-based
# [1] = target: T1, APOL1 G2 (Homo sapiens, UniProt O14791, DEL388-389); assay: APOL1-mediated calcium transport (calcium influx) assay, HEK T-REx/GCaMP6f/APOL1 G2 K6.3 cells, FLIPR TETRA; conditions: prevention of calcium influx; geometric mean of at least 2 assay runs; † = average of a technical replicate from a single assay run
# T1 construct: expressed in transfected cells; host or cells: HEK293 T-REx clonal line stably expressing GCaMP6f (HEK T-REx/GCaMP6f/APOL1 G2 K6.3), doxycycline induced
# T1 sequence (O14791 with tags, fused parts or gaps DEL388-389): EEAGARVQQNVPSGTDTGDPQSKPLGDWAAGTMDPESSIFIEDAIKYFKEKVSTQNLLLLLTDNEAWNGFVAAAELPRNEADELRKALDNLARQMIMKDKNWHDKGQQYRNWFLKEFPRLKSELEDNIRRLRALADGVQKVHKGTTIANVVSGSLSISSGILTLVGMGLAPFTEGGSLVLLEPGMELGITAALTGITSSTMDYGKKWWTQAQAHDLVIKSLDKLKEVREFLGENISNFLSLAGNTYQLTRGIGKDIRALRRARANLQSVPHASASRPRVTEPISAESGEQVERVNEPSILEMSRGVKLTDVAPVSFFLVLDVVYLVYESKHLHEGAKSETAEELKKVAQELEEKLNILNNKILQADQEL
# Method: A HEK293 clonal cell line was generated to stably express GCaMP6f, a genetically encoded calcium indicator, and inducibly express APOL1 G2 (HEK T-REx/GCaMP6f/APOL1 G2 K6.3). Cells were maintained in the following standard complete medium: DMEM with 4.5 g/L glucose and sodium pyruvate (BioWhittaker, Lonza, BE12-614F), supplemented with 10% FBS Performance Plus (Gibco, 16000044), 1% penicillin-streptomycin (BioWhittaker, DE17-602E), 2 mM ultraglutamine-1 (BioWhittaker cat. BE 17-605/U1), 50 μg/mL Zeocin (InvivoGen, ant-zn), 2.5 μg/mL Blasticidin (InvivoGen, ant-bl-5), and 25 μg/mL Hygromycin (InvivoGen, ant-hg). Standard propagation conditions consisted of plating 9×10^6, 4×10^6, 2×10^6 cells in a T225 flasks to be processed after 2, 3, or 4 days, respectively.
# A source plate was generated containing 20 serially diluted compounds in DMSO (duplicate 8-point dose response). Next, 0.8 μL of compounds were transferred from the source plate to a destination plate prefilled with 79.2 μL of Ca^2+ free Tyrode's buffer (130 mM NaCl, 5 mM KCl, 1 mM MgCl2, 5 mM NaHCO3, 20 mM HEPES at pH 7.4). The destination plate was placed on a plate shaker (5 seconds at 2000 rpm) to mix. […] All transfer and mixing steps were conducted with an CyBi®-Well dispenser.
# Cells were split by gently washing with DPBS (Euroclone, ECB4004L), followed by a 5-minute incubation (humidified, 37° C. with 5% CO2) with trypsin-EDTA solution (Euroclone, ECB3052D). Detached cells were diluted with standard complete medium without selective agents, counted, and plated in a 384 MTP microplate (GR4332CPL, Twin Helix) (10,000 cells/well in 25 μl/well) using a MATRIX WellMate dispenser. Plates were placed into a humidified incubator (37° C. with 5% CO2) overnight. The following day, 20 μL of doxycycline (Sigma, D9891) at 20 ng/mL in standard complete medium was added to cells with a CyBi® Drop dispenser to induce APOL1 G2 expression. After a 6-hour incubation (humidified, 37° C. with 5% CO2), cells were washed 3 times with Ca^2+ free Tyrode's Buffer (130 mM NaCl, 5 mM KCl, 1 mM MgCl2, 5 mM NaHCO3, 20 mM HEPES at pH 7.4) using a BIOTEK Microplate washer, such that 10 μL of buffer remained in each well after the final wash. Assay plates were then stored at room temperature for 10 minutes. Next, 10 μL of diluted compounds were transferred to the assay plate from the 2× compound plate using a CyBi®-Well dispenser. Compound incubation was then carried out at room temperature for 10 minutes. The assay plate was transferred to the FLIPR^TETRA and 20 μL of 10 mM Ca^2+ (final concentration=5 mM) Tyrode's buffer was injected.
# Unless otherwise specified, AC50 and values are reported as the geometric mean of at least 2 assay runs on separate days. Each run represents the average of a technical replicate, where each compound was assayed twice in the same plate. A superscript t symbol indicates a value from the average of a technical replicate from a single assay run, where each compound was assayed twice in the same plate.
# The AC50 values in Table 39 below reflect the compound's ability to prevent calcium influx by inhibiting APOL1. […] Compounds in Table 39 are referred to by the corresponding Compound Number in Table 1, which is also referred to in the synthetic examples. When one or more of the numbered compounds are identified by stereochemistry (for example, (R)- or (S)-), the specific stereoisomer for which data is provided in Table 39 may be identified by the elution order of such compound as described in the synthetic examples. For example, Compounds 39 and 40 are associated with Step 5 of Example 13, where Compound 39 is the first eluting enantiomer, and Compound 40 is the second eluting enantiomer in the chiral separation of Compound 38. For Table 39 below, n/a represents “not available”.
# [2] = system: HEK293 cells overexpressing APOL1 G2; assay: APOL1 G2 HEK293 cell rescue assay (reversal of cell death caused by overexpression of APOL1); conditions: Homo sapiens, HEK293, HEK293 overexpressing APOL1 G2; geometric mean of at least 2 assay runs; † = single assay run
# Method: Unless otherwise specified, EC50 values are reported as the geometric mean of at least 2 assay runs on separate days. Each run represents the average of a technical replicate, where each compound was assayed twice in the same plate. A superscript t symbol indicates a value from the average of a technical replicate from a single assay run, where each compound was assayed twice in the same plate. Compounds in Table 40 are referred to by the corresponding Compound Number in Table 1, which is also referred to in the synthetic examples. When one or more of the numbered compounds are identified by stereochemistry (for example, (R)- or (S)-), the specific stereoisomer for which data is provided in Table 40 may be identified by the elution order of such compound as described in the synthetic examples. Absolute stereochemistry of such compounds may be identified by methods known in the art. For Table 40 below, n/a represents “not available”.
# Rescue EC50 values reported in Table 40 below represent the half-maximal effective concentration for reversal of cell death caused by overexpression of APOL1.
# [3] = system: HEK293 clonal cell line overexpressing APOL1 G1; assay: APOL1 G1 HEK293 cell rescue assay (Example B3); conditions: Homo sapiens, HEK293, HEK293 clonal line overexpressing APOL1 G1; geometric mean of at least 2 runs; † = single run; ¥ = concentration at 50% rescue estimated (no sigmoidal curve)
# Method: Compounds were also assayed in a HEK293 clonal cell line overexpressing APOL1 G1 by a method similar to that shown in Example B2 above.
# Unless otherwise specified, EC50 values are reported as the geometric mean of at least 2 assay runs on separate days. Each run represents the average of a technical replicate, where each compound was assayed twice in the same plate. A superscript † symbol indicates a value from the average of a technical replicate from a single assay run, where each compound was assayed twice in the same plate. A ¥ symbol represents compound concentration at 50% rescue estimated due to lack of sigmoidal curve preventing curve fitting. Compounds in Table 41 are referred to by the corresponding Compound Number in Table 1, which is also referred to in the synthetic examples. When one or more of the numbered compounds are identified by stereochemistry (for example, (R)- or (S)-), the specific stereoisomer for which data is provided in Table 41 may be identified by the elution order of such compound as described in the synthetic examples. Absolute stereochemistry of such compounds may be identified by methods known in the art. For Table 41 below, n/a represents “not available”.
# Rescue EC50 values reported in Table 41 below represent the half-maximal effective concentration for reversal of cell death caused by overexpression of APOL1.
smiles,measurement,setting,value
"Cc1cc(OCCN2CCC3(CC2)C(=O)Nc2ccc(C#N)cc23)cc(C)c1S(C)(=O)=O [Compound 130, 1′-[2-(4-methanesulfonyl-3,5-dimethylphenoxy)ethyl]-2-oxo-1,2-dihydrospiro[indole-3,4′-piperidine]-5-carbonitrile]",AC50,[1],525 nM
same,EC50,[2],92.3 nM
same,EC50,[3],253 nM
"O=C1OC2(COC2)c2ccc(OCCN3CCC4(CC3)C(=O)Nc3ccc(Cl)cc34)cc21 [Compound 179, 5-chloro-1′-(2-{3-oxo-3H-spiro[2-benzofuran-1,3′-oxetan]-5-yloxy}ethyl)-1,2-dihydrospiro[indole-3,4′-piperidin]-2-one]",AC50,[1],655 nM
same,EC50,[2],164 nM
same,EC50,[3],484 nM
"C[C@]1(O)C[C@@H](n2cnc3cc(OCCN4CCC5(CC4)C(=O)Nc4ccc(Cl)cc45)cc(C(F)F)c32)C1 [Compound 445, 5-chloro-1′-(2-{[7-(difluoromethyl)-1-[(cis)-3-hydroxy-3-methylcyclobutyl]-1H-1,3-benzodiazol-5-yl]oxy}ethyl)-1,2-dihydrospiro[indole-3,4′-piperidin]-2-one]",AC50,[1],1110 nM
same,EC50,[2],8.15 nM
same,EC50,[3],29.4 nM
"CC1(Oc2ncc(OCCN3CCC4(CC3)C(=O)Nc3ccc(C#N)cc34)cn2)COC1 [Compound 173, 1′-[2-({2-[(3-methyloxetan-3-yl)oxy]pyrimidin-5-yl}oxy)ethyl]-2-oxo-1,2-dihydrospiro[indole-3,4′-piperidine]-5-carbonitrile]",AC50,[1],908 nM
same,EC50,[2],289 nM
same,EC50,[3],1160 nM
"C[C@]1(O)C[C@@H](n2cnc3cc(OCCN4CCC5(CC4)C(=O)Nc4ccc(C#N)cc45)cc(F)c32)C1 [Compound 455, 1′-(2-((7-fluoro-1-((cis)-3-hydroxy-3-methylcyclobutyl)-1H-benzo[d]imidazol-5-yl)oxy)ethyl)-2-oxospiro[indoline-3,4′-piperidine]-5-carbonitrile]",AC50,[1],1250 nM
same,EC50,[2],75.3 nM
"CC1(C)OC(=O)c2cc(OCCN3CCC4(CC3)C(=O)Nc3ccc(Cl)cc34)cnc21 [Compound 458, 5-chloro-1′-[2-({7,7-dimethyl-5-oxo-5H,7H-furo[3,4-b]pyridin-3-yl}oxy)ethyl]-1,2-dihydrospiro[indole-3,4′-piperidin]-2-one]",AC50,[1],528 nM
same,EC50,[2],16.5 nM
same,EC50,[3],75.7 nM
"N#Cc1ccc2c(c1)C1(CCN(CCOc3ccc4c(c3)CCN3C(=O)NCC43)CC1)C(=O)N2 (single isomer, unassigned) [Compound 119, (S) or (R)-2-oxo-1′-[2-({3-oxo-1H,2H,3H,5H,6H,10bH-imidazo[4,3-a]isoquinolin-8-yl}oxy)ethyl]-1,2-dihydrospiro[indole-3,4′-piperidine]-5-carbonitrile]",AC50,[1],1010 nM
same,EC50,[2],435 nM
same,EC50,[3],~3400 nM
"N#Cc1ccc2c(c1)C1(CCN(CCOc3ccc4c(c3)CNC4=O)CC1)C(=O)N2 [Compound 170, 2-oxo-1′-{2-[(1-oxo-2,3-dihydro-1H-isoindol-5-yl)oxy]ethyl}-1,2-dihydrospiro[indole-3,4′-piperidine]-5-carbonitrile]",AC50,[1],1310 nM
same,EC50,[2],803 nM
same,EC50,[3],~2300 nM
"CC(=O)N1CCCc2cc(OCCN3CCC4(CC3)C(=O)Nc3ccc(C#N)cc34)cnc21 [Compound 81, 1′-{2-[(8-acetyl-5,6,7,8-tetrahydro-1,8-naphthyridin-3-yl)oxy]ethyl}-2-oxo-1,2-dihydrospiro[indole-3,4′-piperidine]-5-carbonitrile]",AC50,[1],549 nM
same,EC50,[2],280 nM
same,EC50,[3],948 nM
"C[C@]1(O)C[C@@H](n2c(=O)cc(C(F)(F)F)c3cc(OCCN4CCC5(CC4)C(=O)Nc4ccc(Cl)cc45)cnc32)C1 [Compound 341, 5-chloro-1′-[2-({7-oxo-8-[(cis)-3-hydroxy-3-methylcyclobutyl]-5-(trifluoromethyl)-7,8-dihydro-1,8-naphthyridin-3-yl}oxy)ethyl]-1,2-dihydrospiro[indole-3,4′-piperidin]-2-one]",AC50,[1],1060 nM
same,EC50,[2],41.5 nM
"C[C@]1(O)C[C@@H](n2c(=O)cc(C(F)(F)F)c3cc(OCCN4CCC5(CC4)C(=O)Nc4ccc(C(F)F)cc45)cnc32)C1 [Compound 342, 5-(difluoromethyl)-1′-[2-({7-oxo-8-[(cis)-3-hydroxy-3-methylcyclobutyl]-5-(trifluoromethyl)-7,8-dihydro-1,8-naphthyridin-3-yl}oxy)ethyl]-1,2-dihydrospiro[indole-3,4′-piperidin]-2-one]",AC50,[1],780 nM
same,EC50,[2],90.2 nM
